# Measured values: US8735387B2, “Oxazolopyrimidines as Edg-1 receptor agonists” (Sanofi, priority 2008, dated 2014)
# Biological target: T1, human Edg-1 receptor (Homo sapiens, UniProt P21453)
# T1 construct: expressed in transfected cells; membrane preparation
# Experiment: GTP-γ-S assay using human Edg-1 receptors (scintillation proximity assay, membrane preparation from CHO Flp-In cell line)
# Assay type: biochemical
# Settings: example compound at 10 μM; relative to 10 μM S1P; GTP-γ-S SPA, human Edg-1 membranes
# From the text: Determination of the Pharmacological Activity A) GTP-γ-S Assay Using Human Edg-1 Receptors
# In order to determine the Edg-1 receptor activation by the compounds of the invention, a GTP-γ-S (guanosine 5′-[γ-thio]triphosphate) assay for G-protein coupled receptor binding based on the scintillation proximity assay principle was used, employing a cell membrane preparation from a CHO Flp-In cell line which constitutively overexpresses the human Edg-1 receptor.
# The Flp-In™ expression system (Invitrogen, cat. no. K6010-01) allows the generation of stable mammalian cell lines into which the gene of interest has been integrated through homologous recombination at a specific genomic location called Flp Recombination Target (FRT) site by means of a Flp recombinase encoded by the pOG44 expression plasmid. The integration of the pcDNA5/FRT expression construct into the Flp-In host cell line genome results in the transcription of the gene of interest. The stably transfected cells become hygromycin-resistant.
# One day prior to transfection, 200 000 Flp-In-CHO cells were seeded in Ham F-12 medium (Invitrogen, cat. no. 31765) supplemented with 10% fetal calf serum (FCS; Perbio Science, cat. no. SH30068.03) in a 6-well plate and incubated at 37° C./5% CO2 overnight. Using the FuGENE® 6 transfection reagent (Roche, cat. no. 11988387001), cells were cotransfected with the Flp recombinase expression plasmid pOG44 and a modified plasmid additionally containing the edg-1 gene (accession no. NM_001400) termed as pcDNA5-FRT-TO_nFLAG_DEST-EDG-1 with a 9:1 ratio. To obtain the modified pcDNA5-FRT-TO_nFLAG_DEST plasmid, the Invitrogen plasmid pcDNA5/FRT/TO (Invitrogen, cat. no. V6520-20) was adapted to the Gateway® (Invitrogen) cloning system by inserting a Gateway cassette containing attR recombination sites flanking a ccdB gene and a chloramphenicol-resistance gene (Gateway conversion system, Invitrogen, cat. no. 11828-029). In addition a FLAG tag epitope was added before the 5′ att recombination site to allow recombinant expression of N-terminally FLAG-tagged proteins.
# For the transfection of one well, 1.08 μg of pOG44 and 0.12 μg of pcDNA5-FRT-TO_nFLAG_DEST-EDG-1 were mixed to 100 μl of serum-free Ham F-12 medium containing 6 μl of FuGENE® 6 transfection reagent. After 20 min of incubation, the transfection reagent/DNA complex was distributed dropwise on the cells. The cells were incubated for 24 h at 37° C. Then the cells from 3 wells each were transferred to a T75 flask (Greiner Cellstar®, cat. no. 658175) containing Ham F-12 medium supplemented with 10% of FCS but without antibiotic and were incubated another 24 h. 48 h after transfection, the medium was replaced by selection medium (Ham F-12 supplemented with 10% of FCS and 300 μg/ml of hygromycin B (Invitrogen, cat. no. 10687-010)). The medium was exchanged every 2 to 3 days until a resistant population of cells had grown. […] After 2 weeks of selection, the cells were transferred into T175 flasks (Greiner Cellstar®, cat. no. 660175) and cultivated for batch production. Cells were harvested from the culture flasks by short treatment (2 to 5 min) with Accutase (PAA, cat. no. L11-007), resuspended in selection medium (see above) and centrifuged at 200×g for 5 min. Cells were resuspended in a mixture of 90% of FCS and 10% of dimethylsulfoxide and stored frozen in liquid nitrogen.
# A membrane preparation was obtained by standard methods from the afore-described CHO Flp-In cell line constitutively overexpressing the human Edg-1 receptor. Briefly, the cryopreserved cells were taken in culture and grown until confluency in T175 cell culture flasks (Becton Dickinson, cat. no. 35 5001). […]
# T1 sequence (P21453 whole entry): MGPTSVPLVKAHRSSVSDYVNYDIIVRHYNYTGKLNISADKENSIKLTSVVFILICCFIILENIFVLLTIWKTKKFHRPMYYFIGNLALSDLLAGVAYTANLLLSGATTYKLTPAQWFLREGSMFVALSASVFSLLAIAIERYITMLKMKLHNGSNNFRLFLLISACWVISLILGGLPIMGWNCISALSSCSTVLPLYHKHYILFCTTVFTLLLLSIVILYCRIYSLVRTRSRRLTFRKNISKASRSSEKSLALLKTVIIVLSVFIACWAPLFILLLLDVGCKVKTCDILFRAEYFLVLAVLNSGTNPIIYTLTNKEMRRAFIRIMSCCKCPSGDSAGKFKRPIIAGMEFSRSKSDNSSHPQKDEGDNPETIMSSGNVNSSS
row,SMILES,% Activation (Edg-1 receptor activation in percent of the activation by 10 μM S1P)
1,CCCOc1nc(CN2CCC(F)(F)CC2)nc2oc(-c3cncc(F)c3)nc12 [Example 40],123%
2,CCCOc1nc(CN2CCOCC2)nc2oc(-c3ccccc3)nc12 [Example 41],116%
3,CCCOc1nc(CN2CCC(F)(F)CC2)nc2oc(-c3ccccc3)nc12 [Example 42],92%
4,CCCOc1nc(CN2CCCOCC2)nc2oc(-c3ccccc3)nc12 [Example 43],122%
5,CCCOc1nc(Cn2ccnn2)nc2oc(-c3cccc(F)c3)nc12 [Example 44],78%
6,CCCOc1nc(CN2CCS(=O)(=O)CC2)nc2oc(-c3cccc(F)c3)nc12 [Example 45],69%
7,CCCOc1nc(CN2CC[S+]([O-])CC2)nc2oc(-c3cccc(F)c3)nc12 [Example 46],35%
8,CCCOc1nc(CN2CC(C)OC(C)C2)nc2oc(-c3cccc(F)c3)nc12 (stereo not drawn) [Example 47],85%
9,CCCOc1nc(Cn2ccnc2C)nc2oc(-c3cccc(F)c3)nc12 [Example 48],81%
10,CCCOc1nc(CN2CC3CC2CO3)nc2oc(-c3cccc(F)c3)nc12 (stereo not drawn) [Example 49],48%
11,CCCOc1nc(CN2CCCC(F)(F)C2)nc2oc(-c3cccc(F)c3)nc12 [Example 50],102%
12,CCCOc1nc(CN2CC(C(=O)O)C2)nc2oc(-c3cccc(F)c3)nc12 [Example 51],24%
13,CCCOc1nc(CN2CC(C(=O)OC)C2)nc2oc(-c3cccc(F)c3)nc12 [Example 52],35%
14,CCCOc1nc(CN2C(=O)CN(C)C2=O)nc2oc(-c3cccc(F)c3)nc12 [Example 53],69%
15,CCCOc1nc(Cn2cnc(CO)c2)nc2oc(-c3cccc(F)c3)nc12 [Example 54],30%
16,CCCOc1nc(CN2CCN(S(C)(=O)=O)CC2)nc2oc(-c3cccc(F)c3)nc12 [Example 55],22%
17,CCCOc1nc(Cn2cnc(C(=O)OC)c2)nc2oc(-c3cccc(F)c3)nc12 [Example 56],44%
18,CCCOc1nc(Cn2cnc(C)c2)nc2oc(-c3cccc(F)c3)nc12 [Example 57],99%
19,CCCOc1nc(Cn2cc(C)cn2)nc2oc(-c3cccc(F)c3)nc12 [Example 58],35%
20,CCCOc1nc(Cn2cnc(-c3ccccc3)c2)nc2oc(-c3cccc(F)c3)nc12 [Example 59],30%
21,CCCOc1nc(Cn2cncc2C(=O)OC)nc2oc(-c3cccc(F)c3)nc12 [Example 60],64%
22,CCCOc1nc(Cn2ccnc2)nc2oc(-c3cccc(F)c3)nc12 [Example 61],76%
23,CCCOc1nc(CN2C(=O)COCC2=O)nc2oc(-c3cccc(F)c3)nc12 [Example 62],94%
24,CCCOc1nc(CN2C(=O)CCCC2=O)nc2oc(-c3cccc(F)c3)nc12 [Example 63],102%
25,CCCOc1nc(CN2CCSC2)nc2oc(-c3cccc(F)c3)nc12 [Example 64],93%
26,CCCOc1nc(CN2CCSCC2)nc2oc(-c3cccc(F)c3)nc12 [Example 65],109%

row,SMILES,% Activation (Edg-1 receptor activation in percent of the activation by 10 μM S1P)
1,CCCOc1nc(CN2CCOCC2)nc2oc(-c3ccc(F)c(F)c3)nc12 [Example 66],107%
2,CCCOc1nc(CN2CCCOCC2)nc2oc(-c3ccc(F)c(F)c3)nc12 [Example 67],105%
3,CCCOc1nc(CN2CCC(F)(F)CC2)nc2oc(-c3ccc(F)c(F)c3)nc12 [Example 68],120%
4,CCCOc1nc(CN2CCCC(F)C2)nc2oc(-c3cccc(F)c3)nc12 (stereo not drawn) [Example 69],113%
5,CCCOc1nc(CN2CCC(F)CC2)nc2oc(-c3cccc(F)c3)nc12 [Example 70],113%
6,CCCOc1nc(CN2CCOCC2)nc2oc(-c3ccnc(Cl)c3)nc12 [Example 71],116%
7,CCCOc1nc(CN2CCOCC2)nc2oc(-c3cccc(C(F)(F)F)c3)nc12 [Example 72],99%
8,CCCOc1nc(CN2CCC(F)(F)CC2)nc2oc(-c3cccc(C(F)(F)F)c3)nc12 [Example 73],120%
9,CCCOc1nc(CN2CCCOCC2)nc2oc(-c3cc(Cl)ccc3OC)nc12 [Example 74],114%
10,CCCOc1nc(CN2CCOCC2)nc2oc(-c3cc(Cl)ccc3OC)nc12 [Example 75],72%
11,CCCOc1nc(CN2CCC(F)(F)CC2)nc2oc(-c3cc(Cl)ccc3OC)nc12 [Example 76],104%
12,CCCOc1nc(CN2CCOCC2)nc2oc(-c3ccc(Cl)c(Cl)c3)nc12 [Example 77],112%
13,CCCOc1nc(CN2CCCOCC2)nc2oc(-c3ccc(Cl)c(Cl)c3)nc12 [Example 78],103%
14,CCCOc1nc(CN2CCC(F)(F)CC2)nc2oc(-c3ccc(Cl)c(Cl)c3)nc12 [Example 79],111%
15,CCCOc1nc(CN2CCCOCC2)nc2oc(-c3cc(OC)ccc3OC)nc12 [Example 80],65%
16,CCCOc1nc(CN2CCC(F)(F)CC2)nc2oc(-c3cc(OC)ccc3OC)nc12 [Example 81],83%
17,CCCOc1nc(CN2CCOCC2)nc2oc(-c3c(F)ccc(F)c3F)nc12 [Example 82],104%
18,CCCOc1nc(CN2CCC(F)(F)CC2)nc2oc(-c3c(F)ccc(F)c3F)nc12 [Example 83],111%
19,CCCOc1nc(CN2CCOCC2)nc2oc(-c3cc(F)c(F)cc3Cl)nc12 [Example 84],108%
20,CCCOc1nc(CN2CCCOCC2)nc2oc(-c3cc(F)c(F)cc3Cl)nc12 [Example 85],104%
21,CCCOc1nc(CN2CCCOCC2)nc2oc(-c3c(F)ccc(F)c3F)nc12 [Example 86],120%
22,CCCOc1nc(CN2CCC(F)(F)CC2)nc2oc(-c3cc(F)c(F)cc3Cl)nc12 [Example 87],92%
23,CCCOc1nc(CN2CCOCC2)nc2oc(-c3ccc(OC)c(F)c3)nc12 [Example 88],101%
24,CCCOc1nc(CN2CCOCC2)nc2oc(-c3ccc(Cl)c(F)c3)nc12 [Example 89],107%
25,CCCOc1nc(CN2CCC(F)(F)CC2)nc2oc(-c3ccc(Cl)c(F)c3)nc12 [Example 90],115%
